Test [1] addresses T1, HPK1 (Homo sapiens, UniProt Q92918).
T1 construct: endogenous in cells; host or cells: Jurkat T cells
The experiment in a line: Western blot analysis of endogenous HPK1 level in Jurkat T cells. The test is classed as cell-based. In general terms: A western blot detects proteins with antibodies after separation by electrophoresis.

For another test, the system named is primary GFP+ Tregs. Briefly: IL-2 production by primary GFP+ Tregs in response to TCR engagement. The test is classed as cell-based. The note with it: stimulation by TCR engagement (FIG. 7).
Test [2] has as its target T2, HPK1 (Mus musculus, UniProt P70218).
T2 construct: HPK1 degraders could effectively degrade endogenous HPK1 in murine T cells; endogenous in cells; host or cells: primary mouse T cells
T2 sequence (P70218 1-827): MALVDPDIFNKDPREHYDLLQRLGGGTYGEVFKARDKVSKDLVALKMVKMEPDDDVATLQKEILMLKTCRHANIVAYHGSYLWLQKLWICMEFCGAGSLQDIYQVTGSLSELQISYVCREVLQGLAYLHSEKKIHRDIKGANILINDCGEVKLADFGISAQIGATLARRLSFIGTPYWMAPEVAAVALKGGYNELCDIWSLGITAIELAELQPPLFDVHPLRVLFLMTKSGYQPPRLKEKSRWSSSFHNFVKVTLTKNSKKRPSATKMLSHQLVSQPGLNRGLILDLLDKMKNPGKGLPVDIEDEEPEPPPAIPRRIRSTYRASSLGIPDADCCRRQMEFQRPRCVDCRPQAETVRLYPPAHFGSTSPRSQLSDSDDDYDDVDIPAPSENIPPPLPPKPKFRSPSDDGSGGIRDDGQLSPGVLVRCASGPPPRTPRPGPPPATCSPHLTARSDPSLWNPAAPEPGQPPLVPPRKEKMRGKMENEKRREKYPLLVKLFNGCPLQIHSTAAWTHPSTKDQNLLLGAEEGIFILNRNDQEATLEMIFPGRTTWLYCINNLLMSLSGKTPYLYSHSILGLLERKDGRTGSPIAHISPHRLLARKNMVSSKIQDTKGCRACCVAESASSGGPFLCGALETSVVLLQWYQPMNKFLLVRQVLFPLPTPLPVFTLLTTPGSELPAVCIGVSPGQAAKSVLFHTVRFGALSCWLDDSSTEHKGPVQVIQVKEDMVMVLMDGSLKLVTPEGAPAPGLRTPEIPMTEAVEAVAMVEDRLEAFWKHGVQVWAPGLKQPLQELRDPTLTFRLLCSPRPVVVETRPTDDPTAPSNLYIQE
The experiment in a line: HPK1 degradation in primary mouse T cells. The test is classed as cell-based. To be noted: 300 nM. Here is the method:
(§1) EXAMPLE 348. Several compounds according to the present invention employing the indolin-2-one HPK1 binding base, (which henceforth shall be referred to as the HC58 series, the HC65 series and the HC75 series) were assessed on their abilities to degrade HPK1 and produce an elevated IL-2 response profile upon stimulation by anti-CD3- and anti-CD28-mAb-mediated (CD3XCD28) stimulation (FIGS. 1-4). The elevated IL-2 response profile induced by TCR engagement after exposure to HC58 series of HPK1 degraders is shown in FIG. 1. […] A select sub-set of the lead HPK1 degraders from the HC58 series were further characterized to determine whether they could degrade primary mouse T cells.
EXAMPLE 353. HPK1 is expressed in all hematopoietic cells examined to date, including T cells, B cells, dendritic cells and neutrophils. Because the breath of therapeutic approaches might involve the use of Chimeric Antigen Receptor (CAR) T cells, dendritic cells, TCR transgenic T cells and Tumor Infiltrating Lymphocytes (TILs), selected HPK1 degraders were evaluated to determine whether they could degrade HPK1 effectively in some of these cell types. […] Potent degradation of HPK1 by HPK1 degraders was also observed in the human DC1 dendritic cells.

The test system of test [3] is primary murine T cells. Briefly: IL-2 production by primary murine T cells. It is filed as cell-based, mouse. The protocol: as §1
For test [4], the system named is primary murine T cells. The experiment in a line: Proliferation of primary murine T cells. It is filed as cell-based, mouse. Here is the method: as §1
Another test has as its system CD4+eGFP+ Tregs. Briefly: IL-2 production by regulatory T cells (Tregs) on CD3XCD28 stimulation (IL-2 ELISA). It is filed as cell-based, mouse. To be noted: compared with HPK1-/- Tregs. The source says:
EXAMPLE 350. It was observed that HPK1^−/− regulatory T cells (Treg), unlike their wild type counterparts, could readily produce IL-2 in response to CD3XCD28 stimulation. Taking advantage of the FoxP3-driven eGFP reporter mice that express eGFP only in the FoxP3^+ regulatory T cells (Tregs), bonafide Tregs were purified from spleens and lymph nodes by FACS-assisted sorting of CD4^+eGFP^+ Tregs and used as the source of ex vivo functional studies. The ability of the wild type Treg, the HPK1^−/− Tregs and the HC58-78-treated wild type Tregs to produce IL-2 in response to CD3XCD28 stimulation was compared. […] Wild type regulatory T cells could not produce the IL-2 in response to the same stimulation due to the transcriptional repression of the IL-2 locus by the FoxP3 transcription factor (FIG. 7, the white histogram bar).

For another test, the system named is human PBMCs. The experiment in a line: Intracellular IFNγ and TNFα staining of human PBMC (FACS). The test is classed as cell-based. To be noted: in combination with blinatumomab. From the text:
EXAMPLE 355. One of the mechanisms employed by PBMC to kill their target cells is by releasing IFNγ and TNFα production. These inflammatory cytokines are known have potent cytolytic effects on cancer cells. […] Mediated PBMC killing of the Raji cells is most evident at PBMC:Raji ratio of 5:1 (FIG. 13).
To determine the number of CD19^+ Raji cells killed by human PBMC that were activated by the Blinatumomab-mediated activation, we used CountBright cell counting beads to estimate the number of cells remained after 72 hours of co-culturing of PBMC and Raji. As for the intracellular staining of the TNFα and the IFNγ, the standard para-formaldehyde-based “fix and perm” procedure was used in order to quantitate the amount of intracellular cytokine trapped inside the cells by brefeldin A. FACS analysis of stained cells is performed by BD's LSR II FACS.

The structures appear in SMILES notation.

T1 sequence (Q92918 whole entry): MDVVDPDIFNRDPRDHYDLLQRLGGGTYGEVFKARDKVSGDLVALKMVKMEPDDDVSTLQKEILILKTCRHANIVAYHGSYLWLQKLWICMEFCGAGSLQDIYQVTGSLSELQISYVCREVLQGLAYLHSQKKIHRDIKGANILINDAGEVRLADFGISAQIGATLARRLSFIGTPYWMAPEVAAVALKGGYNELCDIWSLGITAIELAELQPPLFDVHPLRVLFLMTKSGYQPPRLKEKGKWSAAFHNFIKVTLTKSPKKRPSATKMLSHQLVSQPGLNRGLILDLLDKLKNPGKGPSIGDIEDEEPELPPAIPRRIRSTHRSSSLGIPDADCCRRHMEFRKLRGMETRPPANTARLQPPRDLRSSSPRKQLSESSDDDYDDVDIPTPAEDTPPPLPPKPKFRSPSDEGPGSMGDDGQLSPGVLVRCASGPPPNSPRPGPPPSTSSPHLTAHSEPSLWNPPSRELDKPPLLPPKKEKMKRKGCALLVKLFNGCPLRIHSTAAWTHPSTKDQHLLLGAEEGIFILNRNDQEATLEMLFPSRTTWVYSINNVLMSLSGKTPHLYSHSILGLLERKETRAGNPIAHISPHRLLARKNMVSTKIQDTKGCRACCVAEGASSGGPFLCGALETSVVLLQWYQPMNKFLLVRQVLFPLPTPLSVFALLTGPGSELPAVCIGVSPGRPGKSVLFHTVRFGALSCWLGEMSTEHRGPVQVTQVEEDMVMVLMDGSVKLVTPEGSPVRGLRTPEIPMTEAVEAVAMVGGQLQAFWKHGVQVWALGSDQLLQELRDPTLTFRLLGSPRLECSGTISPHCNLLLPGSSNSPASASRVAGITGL

With `Cc1[nH]c(/C=C2\C(=O)Nc3ccc(F)cc32)c(C)c1C(=O)NCCCN1CCN(CC(=O)NCCCCCCCCNc2cccc3c2C(=O)N(C2CCC(=O)NC2=O)C3=O)CC1` (centres unmarked) [HC58-78, (Z)—N-(3-(4-(2-((8-((2-(2,6-dioxopiperidin-3-yl)-1,3-dioxoisoindolin-4-yl)amino)octyl)amino)-2-oxoethyl)piperazin-1-yl)propyl)-5-((5-fluoro-2-oxoindolin-3-ylidene)methyl)-2,4-dimethyl-1H-pyrrole-3-carboxamide], the “endogenous level of HPK1” value on HPK1 [1] (Jurkat T cells, multiple day post exposure (FIG. 3)) is on record as “could reduce the endogenous level of HPK1”. On HPK1 [1] (characterization of exemplary degraders (FIGS. 1-14)), the “reducing HPK1 protein levels” value was “especially effective in reducing HPK1 protein levels”. Further, the IL-2 production entry with primary GFP+ Tregs is “elevated IL-2 production”. The “degradation of HPK1 protein in primary T cells compared with Jurkat T cells” value at HPK1 [2] is “could degrade more HPK1 protein in primary T cells than in Jurkat T cells”. For the same compound, the “IL-2 production compared with the DMSO-treated counterpart” value with primary murine T cells [3] was “produced more IL-2 than the DMSO-treated counterpart”. Besides, in the test on primary murine T cells [4], the “proliferation compared with the DMSO-treated counterpart” value is on record as “proliferate much more quickly than the DMSO-treated counterpart”. Besides, in the test with CD4+eGFP+ Tregs, the “IL-2 production by treated wild type Tregs” value was “produced IL-2 at level comparable to that produced by HPK1^−/− Tregs”. For the same compound, the “percentage of human PBMCs that express high level of IFNγ and TNFα” value with human PBMCs is reported as “significantly increased”.

These data come from patent US12465648B2, “Heterobifunctional compounds as degraders of HPK1” (ICAHN SCHOOL OF MEDICINE AT MOUNT SINAI, priority 2019, dated 2025).
